The values that follow come from PMC8119899, “A Single Mutation in the Outer Lipid-Facing Helix of a Pentameric Ligand-Gated Ion Channel Affects Channel Function Through a Radially-Propagating Mechanism” (Frontiers in Molecular Biosciences, 2021).

Substitutions are numbered along the chain they refer to.

In assay [1] the target is T1, 5-HT3A receptor Y441A (Mus musculus, UniProt P23979, Y468A).
T1 sequence (P23979 24-489 Y468A): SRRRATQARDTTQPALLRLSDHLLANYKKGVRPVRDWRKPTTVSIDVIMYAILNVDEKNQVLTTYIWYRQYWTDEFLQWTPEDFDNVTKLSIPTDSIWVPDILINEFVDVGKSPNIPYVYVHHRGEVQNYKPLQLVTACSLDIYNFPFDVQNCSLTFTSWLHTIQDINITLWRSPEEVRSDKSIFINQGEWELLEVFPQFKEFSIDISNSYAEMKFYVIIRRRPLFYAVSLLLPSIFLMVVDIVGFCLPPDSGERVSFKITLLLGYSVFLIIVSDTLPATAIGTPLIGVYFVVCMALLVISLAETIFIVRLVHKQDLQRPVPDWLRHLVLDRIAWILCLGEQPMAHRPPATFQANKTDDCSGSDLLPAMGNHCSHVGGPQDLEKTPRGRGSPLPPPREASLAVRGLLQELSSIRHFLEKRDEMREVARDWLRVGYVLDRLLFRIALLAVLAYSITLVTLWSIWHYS
Also on record: expressed in transfected cells; method as in Mesoy et al., [2019]. The following applies: HEK293 cells, ref Mesoy et al., [2019]; cited from earlier work.

For assay [2], the target named is T2, 5-HT3A receptor K255Q (Mus musculus, UniProt P23979, K282Q).
T2 construct: expressed in transfected cells; host or cells: Xenopus laevis oocytes (cRNA injection)
T2 sequence (P23979 24-489 K282Q): T1 sequence (P23979 24-489 Y468A) with K259Q, A445Y
Put plainly: FlexStation membrane potential dye, 5-HT response, K255Q receptor in HEK293 cells. It is filed as cell-based. The following applies: mean and SEM, n ≥ 3. On the procedure:
(§1) The mouse 5-HT3A cDNA (Q6J1J7) in pcDNA3.1 (for HEK cell transfection) or pGEMHE (for RNA production) was modified by QuikChange site-directed mutagenesis (Agilent Technologies) to create point mutants (verified by sequencing).
(§2) Human embryonic kidney (HEK) 293 cells were maintained at 37 °C at 5% CO2 in a humidified atmosphere, in Dulbecco's Modified Eagle's Medium/Nutrient Mix F12 (1:1) (Invitrogen, Paisley, UK) with GlutaMAX^TM and 10% fetal bovine serum (GE Healthcare) (DMEM/FBS) and passaged when confluent.
(§3) As described previously (Price and Lummis, [2005]) cells were incubated for 45 min with fluorescent membrane potential-sensitive dye (Membrane Potential Blue kit, Molecular Devices) diluted in Flex buffer (10 mM HEPES, 115 mM NaCl, 1 mM KCl, 1 mM CaCl2, 1 mM MgCl2, and 10 mM glucose, pH 7.4), and subsequently assayed at room temperature for 180 s, with readings every 2 s. […] (log of the concentration of ligand), a is the minimum response, b is the maximum response, and nH is the Hill slope.

For assay [3], the target named is T1, 5-HT3A receptor Y441A. The assay can be described thus: Two-electrode voltage clamp, 5-HT response, Y441A receptor in Xenopus oocytes. It is filed as cell-based. Details: expressed in transfected cells; host or cells: Xenopus laevis oocytes (cRNA injection). The following applies: mean and SEM, n ≥ 3. On the procedure:
as §1
(§4) Xenopus laevis oocytes from EcoCyte Biosciences (Austin Texas) were injected with 100 pg cRNA (generated with the ThermoFisher mMESSAGE mMACHINE T7 transcription kit) and left in injection media [88 mM NaCl, 2.4 mM NaHCO3, 1 mM KCl, 0.82 mM MgSO4 ·7H20, 5 mM Tris-HCl, 0.33 mM Ca(NO3)2·4H2O, 0.41 mM CaCl2·2H2O, 2.51 mM sodium pyruvate, 0.12 mg/ml theophylline, 0.05 mg/ml gentamicin, pH 7.5] at 16 °C for 24 h. […] The holding potential was −60 mV, using glass microelectrodes with a resistance of approximately 1 MΩ backfilled with 3M KCl.
A general note: Two-electrode voltage clamp is typically applied to oocytes expressing channels or transporters.

For assay [4], the target named is T3, 5-HT3A receptor C290A (Mus musculus, UniProt P23979, C317A).
T3 sequence (P23979 24-489 C317A): T1 sequence (P23979 24-489 Y468A) with C294A, A445Y
Put plainly: Two-electrode voltage clamp, 5-HT response, C290A receptor in Xenopus oocytes. The following applies: mean and SEM, n ≥ 3. It is filed as cell-based. On the procedure:
as §1, §4

Assay [5] addresses T3, 5-HT3A receptor C290A. The assay can be described thus: FlexStation membrane potential dye, 5-HT response, C290A receptor in HEK293 cells. Details: expressed in transfected cells; host or cells: HEK293. The following applies: mean and SEM, n ≥ 3. It is filed as cell-based. As for the experimental part: as §1, §2, §3

Take `NCCc1c[nH]c2ccc(O)cc12` [5-HT]: the “response to application of 5-HT” value in assay [1] was “Neither Y441A nor D238A responded”. Further, the nH was 1.9± 0.2 in assay [2], 1.0 ± 0.1 in assay [3], 0.5 ± 0.1 in assay [4] and 1.2 ± 0.2 in assay [5].
